Patent US10988459B2 (priority 2015, dated 2021)

biological target: human RIP1 kinase domain (2-375) (Homo sapiens (Human), UniProt Q13546); assay: biochemical; format: biochemical; settings: Table 3; apparent Ki (Morrison tight-binding fit); 50 nM RIP1 kinase domain, 50 uM ATP, 2 hours incubation; read-out: Ki
Procedure, shortened: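 50 nM purified kinase domain from baculovirus-infected insect cells, incubated 2 h with compound in 50 mM Hepes pH 7.5, 30 mM MgCl2, 1 mM DTT, 50 uM ATP, 0.002% Brij-35, 0.5% DMSO. ADP formation read by Transcreener FP at 633 nm excitation. Ki^app fitted with the Morrison tight-binding equation.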

Sequence of human RIP1 kinase domain (2-375) (Q13546 2-375): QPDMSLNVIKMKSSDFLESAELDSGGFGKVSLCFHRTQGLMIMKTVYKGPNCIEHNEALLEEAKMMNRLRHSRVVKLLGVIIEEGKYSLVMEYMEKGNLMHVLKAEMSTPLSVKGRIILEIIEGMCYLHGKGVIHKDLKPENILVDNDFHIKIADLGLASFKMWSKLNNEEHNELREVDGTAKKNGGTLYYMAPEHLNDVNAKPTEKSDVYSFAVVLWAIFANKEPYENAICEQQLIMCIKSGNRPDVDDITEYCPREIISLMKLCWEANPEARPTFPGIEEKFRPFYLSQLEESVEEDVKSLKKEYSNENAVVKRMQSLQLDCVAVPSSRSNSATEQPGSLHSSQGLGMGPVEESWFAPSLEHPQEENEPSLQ

Row | SMILES | Ki
1 | Cc1cc2n(n1)CCC(NC(=O)c1ncn(Cc3ccccc3)n1)C(=O)N2C (centres unmarked) [Example 333, 1-benzyl-N-(2,4-dimethyl-5-oxo-5,6,7,8-tetrahydro-4H-pyrazolo[1,5-a][1,3]diazepin-6-yl)-1H-1,2,4-triazole-3-carboxamide] | 68 nM
2 | CN1C(=O)[C@@H](NC(=O)c2ncn(Cc3ccccc3)n2)CCn2nccc21 [Example 334, (S)-1-benzyl-N-(4-methyl-5-oxo-5,6,7,8-tetrahydro-4H-pyrazolo[1,5-a][1,3]diazepin-6-yl)-1H-1,2,4-triazole-3-carboxamide] | 27 nM
3 | CCC1CCc2n[nH]c(C(=O)N[C@H]3COc4ccccc4N(C)C3=O)c2C1 (stereo partly drawn) [Example 335, 5-ethyl-N-((S)-5-methyl-4-oxo-2,3,4,5-tetrahydrobenzo[b][1,4]oxazepin-3-yl)-4,5,6,7-tetrahydro-2H-indazole-3-carboxamide] | 13 nM
4 | CN1C(=O)[C@@H](NC(=O)c2ncn3ccc(C(F)(F)F)cc23)CCn2nccc21 [Example 336, (S)-N-(4-methyl-5-oxo-5,6,7,8-tetrahydro-4H-pyrazolo[1,5-a][1,3]diazepin-6-yl)-7-(trifluoromethyl)imidazo[1,5-a]pyridine-1-carboxamide] | 231 nM
5 | CN1C(=O)[C@@H](NC(=O)c2n[nH]c3ccc(Cl)cc23)COc2ccccc21 [Example 338, (S)-5-chloro-N-(5-methyl-4-oxo-2,3,4,5-tetrahydrobenzo[b][1,4]oxazepin-3-yl)-1H-indazole-3-carboxamide] | 21 nM

same assay, conditions: human RIP1 kinase domain (2-375), Transcreener ADP assay, 50 uM ATP, 2 hours incubation; read-out: RIP1 Ki

Row | Ki | SMILES
6 | 88 nM | CN1C(=O)[C@@H](NC(=O)c2nnc(Cc3ccc(F)cc3)[nH]2)CCn2nc(C3CC3)cc21 [Example 332, (S)—N-(2-cyclopropyl-4-methyl-5-oxo-5,6,7,8-tetrahydro-4H-pyrazolo[1,5-a][1,3]diazepin-6-yl)-5-(4-fluorobenzyl)-4H-1,2,4-triazole-3-carboxamide]

same assay, conditions: tight-binding apparent inhibition constant; human RIP1 kinase domain (2-375) 50 nM, 50 uM ATP, 2 hours; read-out: Ki

Row | Ki | SMILES
7 | 19.4 nM | CN1C(=O)[C@@H](NC(=O)c2nc3n(n2)[C@H](C(F)(F)F)CC3)COc2ccccc21 [Example 350, (5S)—N-[(3S)-5-methyl-4-oxo-2,3-dihydro-1,5-benzoxazepin-3-yl]-5-(trifluoromethyl)-6,7-dihydro-5H-pyrrolo[1,2-b][1,2,4]triazole-2-carboxamide]
8 | 52.1 nM | CCC1CCc2nc(C(=O)N[C@H]3COc4ccccc4N(C)C3=O)nn21 (stereo partly drawn) [Example 355, 5-ethyl-N-[(3S)-5-methyl-4-oxo-2,3-dihydro-1,5-benzoxazepin-3-yl]-6,7-dihydro-5H-pyrrolo[1,2-b][1,2,4]triazole-2-carboxamide]
9 | 7.02 nM | CN1C(=O)[C@@H](NC(=O)c2cc3c(cn2)cnn3C(F)(F)F)COc2ccccc21 [Example 356, (S)—N-(5-methyl-4-oxo-2,3,4,5-tetrahydrobenzo[b][1,4]oxazepin-3-yl)-1-(trifluoromethyl)-1H-pyrazolo[4,3-c]pyridine-6-carboxamide]
10 | 10.4 nM | CN1C(=O)[C@@H](NC(=O)c2ncc3cnn(C(F)(F)F)c3n2)COc2ccccc21 [Example 360, N-[(3S)-5-methyl-4-oxo-2,3-dihydro-1,5-benzoxazepin-3-yl]-1-(trifluoromethyl)pyrazolo[3,4-d]pyrimidine-6-carboxamide]
11 | 511 nM | CN1C(=O)[C@@H](NC(=O)c2nc3n(n2)C(c2nccn2C)CC3)COc2ccccc21 (stereo partly drawn) [Example 361, 5-(1-methylimidazol-2-yl)-N-[(3S)-5-methyl-4-oxo-2,3-dihydro-1,5-benzoxazepin-3-yl]-6,7-dihydro-5H-pyrrolo[1,2-b][1,2,4]triazole-2-carboxamide]
12 | 4.3 nM | CN1C(=O)[C@@H](NC(=O)c2nc3cccc(-c4ccccc4)n3n2)COc2ccccc21 [Example 373, (S)—N-(5-methyl-4-oxo-2,3,4,5-tetrahydrobenzo[b][1,4]oxazepin-3-yl)-5-phenyl-[1,2,4]triazolo[1,5-a]pyridine-2-carboxamide]
13 | 28 nM | CN1C(=O)[C@@H](NC(=O)c2nc3cccc(-c4ccccc4)n3n2)CCn2nccc21 [Example 375, (S)—N-(4-methyl-5-oxo-5,6,7,8-tetrahydro-4H-pyrazolo[1,5-a][1,3]diazepin-6-yl)-5-phenyl-[1,2,4]triazolo[1,5-a]pyridine-2-carboxamide]
14 | 42.3 nM | CN1C(=O)[C@@H](NC(=O)c2nc3n(n2)C(c2ccccc2)CCC3)COc2ccccc21 (stereo partly drawn) [Example 376, N—((S)-5-methyl-4-oxo-2,3,4,5-tetrahydrobenzo[b][1,4]oxazepin-3-yl)-5-phenyl-5,6,7,8-tetrahydro-[1,2,4]triazolo[1,5-a]pyridine-2-carboxamide]
15 | 10.8 nM | CN1C(=O)[C@@H](NC(=O)c2nc3n(n2)C(C2CCCCC2)CCC3)COc2ccccc21 (stereo partly drawn) [Example 377, 5-cyclohexyl-N—((S)-5-methyl-4-oxo-2,3,4,5-tetrahydrobenzo[b][1,4]oxazepin-3-yl)-5,6,7,8-tetrahydro-[1,2,4]triazolo[1,5-a]pyridine-2-carboxamide]
16 | 6.68 nM | CCc1cccc2nc(C(=O)N[C@H]3COc4ccccc4N(C)C3=O)nn12 [Example 378, (S)-5-ethyl-N-(5-methyl-4-oxo-2,3,4,5-tetrahydrobenzo[b][1,4]oxazepin-3-yl)-[1,2,4]triazolo[1,5-a]pyridine-2-carboxamide]
17 | 374 nM | CCC1CCCc2nc(C(=O)N[C@H]3CCn4nccc4N(C)C3=O)nn21 (stereo partly drawn) [Example 379, 5-ethyl-N—((S)-4-methyl-5-oxo-5,6,7,8-tetrahydro-4H-pyrazolo[1,5-a][1,3]diazepin-6-yl)-5,6,7,8-tetrahydro-[1,2,4]triazolo[1,5-a]pyridine-2-carboxamide]
18 | 154 nM | CN1C(=O)[C@@H](NC(=O)c2nc3n(n2)C(c2ccccc2)CCC3)CCn2nccc21 (stereo partly drawn) [Example 380, N—((S)-4-methyl-5-oxo-5,6,7,8-tetrahydro-4H-pyrazolo[1,5-a][1,3]diazepin-6-yl)-5-phenyl-5,6,7,8-tetrahydro-[1,2,4]triazolo[1,5-a]pyridine-2-carboxamide]

Further lines, the molecule ahead of its results:

Row | SMILES | Ki
19 | CN1C(=O)[C@@H](NC(=O)c2ncn(Cc3c(F)cccc3F)n2)CCn2nccc21 [Example 343, 1-[(2,6-difluorophenyl)methyl]-N-[(6S)-4-methyl-5-oxo-7,8-dihydro-6H-pyrazolo[1,5-a][1,3]diazepin-6-yl]-1,2,4-triazole-3-carboxamide] | 9.73 nM
20 | CN1C(=O)[C@@H](NC(=O)c2nc3n(n2)[C@H](C(F)(F)F)CC3)CCn2nccc21 [Example 344, (5S)—N-[(6S)-4-methyl-5-oxo-7,8-dihydro-6H-pyrazolo[1,5-a][1,3]diazepin-6-yl]-5-(trifluoromethyl)-6,7-dihydro-5H-pyrrolo[1,2-b][1,2,4]triazole-2-carboxamide] | 226 nM
21 | Cc1cc(F)c2c(c1)OC[C@H](NC(=O)c1nc3n(n1)C(C(C)C)CC3)C(=O)N2 (stereo partly drawn) [Example 345, N-[(3S)-6-fluoro-8-methyl-4-oxo-3,5-dihydro-2H-1,5-benzoxazepin-3-yl]-5-isopropyl-6,7-di hydro-5H-pyrrolo[1,2-b][1,2,4]triazole-2-carboxamide] | 20 nM
22 | CC(C)C1CCc2nc(C(=O)N[C@H]3CCn4nccc4N(C)C3=O)nn21 (stereo partly drawn) [Example 346, 5-isopropyl-N-[(6S)-4-methyl-5-oxo-7,8-dihydro-6H-pyrazolo[1,5-a][1,3]diazepin-6-yl]-6,7-dihydro-5H-pyrrolo[1,2-b][1,2,4]triazole-2-carboxamide] | 175 nM
23 | Cc1cc(F)c2c(c1)OC[C@H](NC(=O)c1nc3n(n1)[C@H](C(F)(F)F)CC3)C(=O)N2 [Example 347, (5S)—N-[(3S)-6-fluoro-8-methyl-4-oxo-3,5-dihydro-2H-1,5-benzoxazepin-3-yl]-5-(trifluoromethyl)-6,7-dihydro-5H-pyrrolo[1,2-b][1,2,4]triazole-2-carboxamide] | 4.91 nM
24 | O=C(N[C@H]1COc2cc(F)cc(F)c2NC1=O)c1nc2n(n1)[C@H](C(F)(F)F)CC2 [Example 348, (5S)—N-[(3S)-6,8-difluoro-4-oxo-3,5-dihydro-2H-1,5-benzoxazepin-3-yl]-5-(trifluoromethyl)-6,7-dihydro-5H-pyrrolo[1,2-b][1,2,4]triazole-2-carboxamide] | 13.8 nM
25 | CCC1CCc2nc(C(=O)N[C@H]3COc4cc(C)cc(F)c4NC3=O)nn21 (stereo partly drawn) [Example 349, 5-ethyl-N-[(3S)-6-fluoro-8-methyl-4-oxo-3,5-dihydro-2H-1,5-benzoxazepin-3-yl]-6,7-dihydro-5H-pyrrolo[1,2-b][1,2,4]triazole-2-carboxamide] | 33.5 nM
26 | CCC1CCc2nc(C(=O)N[C@H]3CCn4nccc4N(C)C3=O)nn21 (stereo partly drawn) [Example 351, 5-ethyl-N-[(6S)-4-methyl-5-oxo-7,8-dihydro-6H-pyrazolo[1,5-a][1,3]diazepin-6-yl]-6,7-di hydro-5H-pyrrolo[1,2-b][1,2,4]triazole-2-carboxamide] | 394 nM
27 | O=C(N[C@H]1CCc2cc(F)cc(F)c2NC1=O)c1nc2n(n1)[C@H](C(F)(F)F)CC2 [Example 357, (5S)—N-[(3S)-7,9-difluoro-2-oxo-1,3,4,5-tetrahydro-1-benzazepin-3-yl]-5-(trifluoromethyl)-6,7-dihydro-5H-pyrrolo[1,2-b][1,2,4]triazole-2-carboxamide] | 46.1 nM
28 | CC(=O)c1cc2n(n1)CC[C@H](NC(=O)c1ncn(Cc3ccccc3)n1)C(=O)N2C [Example 366, (S)—N-(2-acetyl-4-methyl-5-oxo-5,6,7,8-tetrahydro-4H-pyrazolo[1,5-a][1,3]diazepin-6-yl)-1-benzyl-1H-1,2,4-triazole-3-carboxamide] | 17.3 nM
29 | CCc1cccc2nc(C(=O)N[C@H]3CCn4nccc4N(C)C3=O)nn12 [Example 374, (S)-5-ethyl-N-(4-methyl-5-oxo-5,6,7,8-tetrahydro-4H-pyrazolo[1,5-a][1,3]diazepin-6-yl)-[1,2,4]triazolo[1,5-a]pyridine-2-carboxamide] | 269 nM
